Results published in ChEMBL document CHEMBL3091290, “2-(2-Phenylmorpholin-4-yl)pyrimidin-4(3H)-ones; a new class of potent, selective and orally active glycogen synthase kinase-3β inhibitors” (Bioorg Med Chem Lett, 2013).

Columns and labels:
Liver microsome [1] = experiment: Intrinsic clearance in human liver microsomes; format: ADME
Cytochrome P450 2D6 = Cytochrome P450 2D6 (Homo sapiens, UniProt P10635); experiment: Inhibition of recombinant human CYP2D6; format: ADME
Cytochrome P450 1A2 = target: T1, Cytochrome P450 1A2 (Homo sapiens, UniProt P05177); experiment: Inhibition of recombinant human CYP1A2; format: ADME
T1 sequence (P05177 whole entry): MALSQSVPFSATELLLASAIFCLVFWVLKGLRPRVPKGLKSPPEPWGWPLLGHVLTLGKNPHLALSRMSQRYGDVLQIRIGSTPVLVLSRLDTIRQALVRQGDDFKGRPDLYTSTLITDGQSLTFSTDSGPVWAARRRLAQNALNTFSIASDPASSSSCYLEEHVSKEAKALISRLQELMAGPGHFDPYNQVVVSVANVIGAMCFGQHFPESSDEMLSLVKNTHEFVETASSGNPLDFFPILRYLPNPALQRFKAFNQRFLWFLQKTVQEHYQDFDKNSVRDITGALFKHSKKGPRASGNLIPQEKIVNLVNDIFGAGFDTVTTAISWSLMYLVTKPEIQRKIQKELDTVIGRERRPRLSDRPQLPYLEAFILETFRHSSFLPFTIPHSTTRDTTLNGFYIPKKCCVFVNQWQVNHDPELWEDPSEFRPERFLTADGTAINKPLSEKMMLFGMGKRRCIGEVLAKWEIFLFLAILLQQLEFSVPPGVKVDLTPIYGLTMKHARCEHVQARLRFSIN

[2] = target: Glycogen synthase kinase-3 beta (Homo sapiens, UniProt P49841); experiment: Inhibition of human recombinant GSK-3beta using prephosphorylated GS1 peptide and [gamma-32P]ATP as substrate after 1 hr by liquid scintillation spectrometry
Sequence of Glycogen synthase kinase-3 beta (P49841 whole entry): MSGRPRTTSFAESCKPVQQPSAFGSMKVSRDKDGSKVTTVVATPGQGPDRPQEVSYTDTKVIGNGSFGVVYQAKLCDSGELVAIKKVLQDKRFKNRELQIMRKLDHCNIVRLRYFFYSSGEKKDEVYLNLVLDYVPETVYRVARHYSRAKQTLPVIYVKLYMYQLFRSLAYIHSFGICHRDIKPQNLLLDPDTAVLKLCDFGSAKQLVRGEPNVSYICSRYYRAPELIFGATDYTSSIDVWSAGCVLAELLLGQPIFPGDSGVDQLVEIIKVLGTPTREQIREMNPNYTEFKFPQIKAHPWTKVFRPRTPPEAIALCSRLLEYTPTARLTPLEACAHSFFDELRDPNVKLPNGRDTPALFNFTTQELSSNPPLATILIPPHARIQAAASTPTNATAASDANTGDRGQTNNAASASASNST

MDR1 (P-glycoprotein) = experiment: Permeability efflux ratio in MDR1 expressing pig LLC cells; format: ADME, cell-based, Sus scrofa; conditions: LLC-PK1
[3] = Oral bioavailability in Sprague-Dawley rat at 10 mg/kg; format: ADME, organism-based; conditions: in vivo
[4] = Permeability of the compound across human Caco2 cells; format: ADME, cell-based; conditions: Caco-2, read-out: permeability
[5] = Ratio of drug level in brain (0 to infinity) to plasma (0 to infinity) in ICR mouse at 1 mg/kg, po; format: ADME, organism-based; design: dose 1 mg/kg, route oral; conditions: read-out: BPR
[6] = AUC (0 to infinity) in Sprague-Dawley rat at 10 mg/kg, po; format: ADME, organism-based; design: time infinity, dose 10 mg/kg, route oral; conditions: plasma
Rattus norvegicus = experiment: Cmax in Sprague-Dawley rat at 10 mg/kg, po; format: ADME, organism-based; design: dose 10 mg/kg, route oral; conditions: in vivo
[7] = Volume of distribution at steady state in Sprague-Dawley rat at 1 mg/kg, iv; format: ADME, organism-based; design: dose 1 mg/kg, route intravenous; conditions: in vivo, read-out: Vdss
[8] = Half life in Sprague-Dawley rat at 10 mg/kg, po; format: ADME, organism-based; design: dose 10 mg/kg, route oral; conditions: in vivo
[9] = target: Casein kinase I isoform alpha (Homo sapiens, UniProt P48729); experiment: Inhibition of CK1 (unknown origin)
Sequence of Casein kinase I isoform alpha (P48729 whole entry, canonical isoform): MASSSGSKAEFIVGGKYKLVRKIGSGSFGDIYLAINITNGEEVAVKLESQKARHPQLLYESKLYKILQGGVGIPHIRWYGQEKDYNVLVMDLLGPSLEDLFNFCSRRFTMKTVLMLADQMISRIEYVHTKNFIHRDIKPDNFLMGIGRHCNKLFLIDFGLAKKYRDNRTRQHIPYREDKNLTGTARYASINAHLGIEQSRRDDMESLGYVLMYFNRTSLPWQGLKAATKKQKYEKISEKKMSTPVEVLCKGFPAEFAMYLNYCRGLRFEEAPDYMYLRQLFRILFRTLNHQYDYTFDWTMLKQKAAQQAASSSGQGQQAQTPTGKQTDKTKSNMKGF

[10] = Total clearance in Sprague-Dawley rat at 1 mg/kg, iv; format: ADME, organism-based; design: dose 1 mg/kg, route intravenous; conditions: in vivo
Cytochrome P450 3A4 = Cytochrome P450 3A4 (Homo sapiens, UniProt P08684); experiment: Inhibition of recombinant human CYP3A4; format: ADME
Sequence of Cytochrome P450 3A4 (P08684 whole entry): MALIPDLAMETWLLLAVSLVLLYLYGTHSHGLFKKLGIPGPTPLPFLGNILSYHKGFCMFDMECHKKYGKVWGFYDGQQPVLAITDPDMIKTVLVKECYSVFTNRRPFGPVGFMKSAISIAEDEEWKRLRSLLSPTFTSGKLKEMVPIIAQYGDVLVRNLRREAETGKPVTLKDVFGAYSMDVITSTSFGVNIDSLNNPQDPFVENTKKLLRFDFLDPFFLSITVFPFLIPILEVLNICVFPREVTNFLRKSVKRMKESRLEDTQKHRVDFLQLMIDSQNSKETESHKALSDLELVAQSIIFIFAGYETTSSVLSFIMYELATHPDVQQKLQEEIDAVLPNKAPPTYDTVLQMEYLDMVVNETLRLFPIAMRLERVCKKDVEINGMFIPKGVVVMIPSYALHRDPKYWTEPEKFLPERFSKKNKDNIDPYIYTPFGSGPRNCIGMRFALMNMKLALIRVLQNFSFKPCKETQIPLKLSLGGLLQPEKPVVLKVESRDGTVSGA

Liver microsome [11] = experiment: Clearance in rat liver microsomes; format: ADME

Sequence of Cytochrome P450 2D6 (P10635 whole entry): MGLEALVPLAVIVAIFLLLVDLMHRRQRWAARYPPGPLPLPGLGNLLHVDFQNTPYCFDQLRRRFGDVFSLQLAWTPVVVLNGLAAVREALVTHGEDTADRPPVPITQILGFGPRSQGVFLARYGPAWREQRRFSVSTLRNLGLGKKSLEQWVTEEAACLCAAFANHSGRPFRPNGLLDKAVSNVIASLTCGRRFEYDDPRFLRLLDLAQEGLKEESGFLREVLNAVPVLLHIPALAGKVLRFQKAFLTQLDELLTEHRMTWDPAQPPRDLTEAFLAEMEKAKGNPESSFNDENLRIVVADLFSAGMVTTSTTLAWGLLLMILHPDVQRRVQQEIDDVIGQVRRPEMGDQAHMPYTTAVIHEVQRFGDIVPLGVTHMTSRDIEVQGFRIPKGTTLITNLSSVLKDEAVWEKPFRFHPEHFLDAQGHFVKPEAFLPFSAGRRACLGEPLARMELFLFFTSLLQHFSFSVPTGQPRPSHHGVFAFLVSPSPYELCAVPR

SMILES	Intrinsic clearance (Liver microsome [1])	IC50 (Cytochrome P450 2D6)	IC50 (Cytochrome P450 1A2)	IC50 [2]	IC50 (Cytochrome P450 3A4)	further results
Cn1c(N2CCO[C@@H](c3ccc(C#N)cc3)C2)nc(-c2ccncn2)cc1=O	30 µL/min/mg	4.5 µM	> 50 µM	0.013 µM		
Cn1c(N2CCO[C@@H](c3ccc(C#N)cc3F)C2)nc(-c2ccncn2)cc1=O	30 µL/min/mg	26.7 µM	> 50 µM	0.0065 µM		
Cn1c(N2CCO[C@@H](c3c(F)cccc3Cl)C2)nc(-c2ccncn2)cc1=O	70 µL/min/mg	32.3 µM	19.5 µM	0.00064 µM		
COc1cnccc1-c1cc(=O)n(C)c(N2CCO[C@@H](c3ccc(F)cc3)C2)n1				0.791 µM		
Cn1c(N2CCO[C@@H](c3ccc(F)cc3)C2)nc(-c2ccncn2)cc1=O	60 µL/min/mg	39.7 µM	29.4 µM	0.012 µM	> 50 µM	efflux ratio (MDR1 (P-glycoprotein)): 1; bioavailability [3]: 37%; Papp [4]: 58.3 ×10⁻⁶ cm/s; Kp [5]: 3.1; AUC(0-inf) [6]: 1300 ng·h/mL; Cmax (Rattus norvegicus): 221 ng/mL; Vd [7]: 2.4 L/kg; half-life [8]: 1.7 h; IC50 [9]: 1.5 µM; clearance [10]: 48.3 mL/min/kg
Cn1c(N2CCO[C@@H](c3ccc(F)cc3)C2)nc(-c2ccnc(Cl)c2)cc1=O				0.903 µM		
Cn1c(N2CCO[C@H](c3ccc(F)cc3)C2)nc(-c2ccncc2)cc1=O				0.077 µM		
Cn1c(N2CCOC(c3ccc(F)cc3)C2)nc(-c2ccncc2)cc1=O (racemic)		35.8 µM	23.9 µM	0.027 µM	> 50 µM	CLH (Liver microsome [11]): 104 µL/min/mg
Cn1c(N2CCOC(c3ccccc3)C2)nc(-c2ccncc2)cc1=O (racemic)		47.4 µM	23.1 µM	0.051 µM	> 50 µM	CLH (Liver microsome [11]): 155 µL/min/mg
COc1ccc([C@H]2CN(c3nc(-c4ccncn4)cc(=O)n3C)CCO2)cc1	110 µL/min/mg	6.9 µM	> 50 µM	0.0029 µM		
Cn1c(N2CCO[C@@H](c3ccccc3F)C2)nc(-c2ccncn2)cc1=O	100 µL/min/mg	32.4 µM	23.3 µM	0.0032 µM		
COc1ccccc1[C@H]1CN(c2nc(-c3ccncn3)cc(=O)n2C)CCO1	190 µL/min/mg	16 µM	15.7 µM	0.00087 µM		
Cc1cnccc1-c1cc(=O)n(C)c(N2CCO[C@@H](c3ccc(F)cc3)C2)n1				2.47 µM		
Cn1c(N2CCO[C@@H](c3ccc(F)cc3)C2)nc(-c2ccncc2)cc1=O		44.2 µM	17.1 µM	0.022 µM	> 50 µM	
COc1cccc([C@H]2CN(c3nc(-c4ccncn4)cc(=O)n3C)CCO2)c1	130 µL/min/mg	26.6 µM	> 50 µM	0.0046 µM	> 50 µM	
Cn1c(NCC(=O)c2ccccc2)nc(-c2ccncc2)cc1=O		> 50 µM			> 50 µM	
Cn1c(N2CCO[C@@H](c3ccc(F)cc3)C2)nc(-c2ccncc2F)cc1=O		22.1 µM	5.5 µM	0.0074 µM	> 50 µM	
COc1cc(F)ccc1[C@H]1CN(c2nc(-c3ccncn3)cc(=O)n2C)CCO1	180 µL/min/mg	18 µM	16.5 µM	0.00047 µM		
COc1cccc(OC)c1[C@H]1CN(c2nc(-c3ccncn3)cc(=O)n2C)CCO1	200 µL/min/mg	> 50 µM	> 50 µM	0.00023 µM		
Cn1c(N2CCO[C@@H](c3ccc(F)cc3)C2)nc(-c2ccncc2Cl)cc1=O				0.43 µM		
